Experimental findings from patent US20240116985A1, “STAPLED PEPTIDES AND METHODS THEREOF” (priority 2020, published 2024) are described below.

What is called logD is lipophilicity at a set pH, counting ionised and neutral species. The low end stands for a more hydrophilic compound, the high end for a more lipophilic compound. By chromatographic logD is commonly meant lipophilicity estimated from chromatographic retention.

Where “and” joins values, the source holds several entries; their conditions need not be identical. Identical values can stand only once. Like-named read-outs stand apart in the source and are kept apart here.

Data set [1] relates to TCF/LEF luciferase Reporter in DLD1 cells. Description: TCF reporter assay (DLD1 TCF/LEF luciferase reporter, Bright-Glo). The conditions noted are these: for DLD1 TCF c2 BrightGlo % Inhibition: replicates. The format is cell-based. The essentials:
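DLD1 cells stably carrying a TCF/LEF luciferase reporter were plated at 5000 cells/well in RPMI + 4% FBS and treated overnight with a 1:2 compound dilution series. Bright-Glo luminescence read on day 3; viability by CellTiter-Glo. Absolute IC50 determined.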
For orientation: Reporter assays use an easily measured gene product as a stand-in for the process of interest.

For data set [2], the target named is T1, beta-catenin/TCF4 engagement (Homo sapiens, UniProt P35222).
T1 construct: expressed in transfected cells; host or cells: HEK293
T1 sequence (P35222 1-781): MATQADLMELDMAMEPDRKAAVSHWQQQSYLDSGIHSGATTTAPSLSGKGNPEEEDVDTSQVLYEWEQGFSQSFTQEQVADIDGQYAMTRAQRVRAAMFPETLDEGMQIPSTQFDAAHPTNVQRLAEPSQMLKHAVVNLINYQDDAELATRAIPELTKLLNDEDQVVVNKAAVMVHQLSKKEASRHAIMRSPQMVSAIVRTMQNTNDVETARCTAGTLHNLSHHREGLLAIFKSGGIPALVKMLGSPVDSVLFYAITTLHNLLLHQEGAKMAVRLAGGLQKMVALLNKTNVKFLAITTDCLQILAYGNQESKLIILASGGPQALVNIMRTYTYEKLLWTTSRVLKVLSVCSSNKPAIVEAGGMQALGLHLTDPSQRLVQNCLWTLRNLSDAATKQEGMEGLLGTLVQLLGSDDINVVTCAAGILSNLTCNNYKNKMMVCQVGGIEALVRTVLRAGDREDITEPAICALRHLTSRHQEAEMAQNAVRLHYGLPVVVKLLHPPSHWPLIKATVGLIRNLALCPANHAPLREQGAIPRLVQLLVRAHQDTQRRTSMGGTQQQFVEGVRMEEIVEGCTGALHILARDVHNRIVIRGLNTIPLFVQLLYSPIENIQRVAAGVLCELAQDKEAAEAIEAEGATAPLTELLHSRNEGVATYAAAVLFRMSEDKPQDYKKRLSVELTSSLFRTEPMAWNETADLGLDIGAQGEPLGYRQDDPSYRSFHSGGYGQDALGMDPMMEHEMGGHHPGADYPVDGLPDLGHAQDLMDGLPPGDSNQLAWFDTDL
Nature of the data set: Nano-BRET target engagement assay (B-cat-Halo & TCF4-Luc in HEK293 cells). The format is cell-based. (Bioluminescence resonance energy transfer reports proximity on the nanometre scale.)

Another data set is described as follows: CHI Log D procedure. The format is physicochemical. Particulars: for CHI Log D / logD: pH 7.4; for chromatographic logD: pH 7.4, CHI Log D.
Data set [3] deals with T2, full-length beta-Catenin (Uniprot ID P35222) (Homo sapiens, UniProt P35222).
T2 construct: 10 nM full-length beta-Catenin (Uniprot ID P35222)
T2 sequence (P35222 1-781): T1 sequence (P35222 1-781)
Nature of the data set: Fluorescence polarization IC50 (beta-catenin / 5FAM-TCF4 10-53 competition). In kind it is binding. On the technique in general: Polarisation of emitted light reports the rotation of a fluorescent probe.

Setting [4] is: Abs IC50, read-out: DLD1 reporter assay Abs IC50.
Where [5] appears, read: first dose = 20 uM (plate map), 20 µM.
[6] abbreviates: read-out: DLD1 4% Abs IC50, DLD1 4%.
[7] abbreviates: third dose = 5 uM (plate map), 5 µM.
The mark [8] stands for this setting: absolute IC50, read-out: NanoBRET Abs IC50.
Setting [9] is: absolute IC50, read-out: DLD1 reporter assay Abs IC50.
[10] abbreviates: fluorescence polarization, beta-catenin, read-out: FP EC50.
Setting [11] is: Peptide + ST-Protein (SAINT-Protein lipid).

For `CC(=O)N1CCC[C@]12CC=CCCCC1(CCCC=CCCCOC(=O)N3CC[C@@](C(=O)N[C@@H](Cc4ccsc4)C(=O)N[C@@H](Cc4csc5ccccc45)C(=O)N[C@@H](CCC(N)=O)C(N)=O)(C3)NC(=O)[C@H](CC(N)=O)NC(=O)[C@H](Cc3ccccc3)NC(=O)[C@H](C)NC(=O)[C@H](C)NC(=O)[C@H](CN(CC(=O)O)CC(F)(F)F)NC(=O)[C@H](CC(=O)O)NC1=O)NC(=O)[C@H](CC(C)(C)C)NC(=O)[C@H](CC(=O)O)NC2=O` (single isomer, unassigned) [I-762, Ac-PL3-Asp-Npg-B5-Asp-TfeGA-Ala-Ala-Phe-Asn-PyrS2-3Thi-BztA-Gln-NH2], the IC50 in data set [1] (setting [4]) worked out at 6 µM; in data set [1] (Peptide + ST-Protein (SAINT-Protein lipid), read-out: TCF Reporter Assay Abs IC50), 0.3 µM; in data set [1] (Peptide only, read-out: TCF Reporter Assay Abs IC50) it was 7 µM; in data set [1] (setting [6]), 7.9 µM; in data set [2] (Abs IC50, read-out: NanoBRET Abs IC50) it was 10 µM; in data set [2] (Peptide + ST-Protein (SAINT-Protein lipid), read-out: Nano-BRET Abs IC50) it was 0.7 µM. The IC50 in data set [2] (Peptide only, read-out: Nano-BRET Abs IC50) amounted to 11 µM; in data set [2] (read-out: NanoBRET Abs IC50), 14 µM; in data set [3] (read-out: FP EC50), 0.006 µM; in data set [3] (read-out: bCat FP IC50), 0.006 µM; in data set [3] (read-out: beta-Catenin FP IC50), 0.005 µM. The “DLD1 TCF c2 BrightGlo % Inhibition” value was 75.7% and 81.9% and 78.7% in data set [1] (setting [5]); 14.5% and 18.6% and 9.3% in data set [1] (0.625 µM); 12.9% and 16.9% and 5.5% in data set [1] (1.25 µM); 12.9% and 17.4% and 11.9% in data set [1] (2.5 µM); 56.8% and 70.2% and 65.6% in data set [1] (10 µM); 28.2% and 45.2% and 44.6% in data set [1] (setting [7]). Further, in the data set “CHI Log D procedure”, the “CHI Log D” value worked out at 2.247. The molecule further gave a logD in “CHI Log D procedure” of 2.2.

Consider `CC(=O)N1CCC[C@]12CC=CCCCC1(CCCC=CCCCOC(=O)N3CC[C@@](C(=O)N[C@@H](Cc4ccsc4)C(=O)N[C@@H](Cc4csc5ccccc45)C(=O)N[C@@H](CCC(N)=O)C(N)=O)(C3)NC(=O)[C@H](CC(N)=O)NC(=O)[C@H](Cc3ccccc3)NC(=O)[C@H](C)NC(=O)[C@H](C)NC(=O)[C@H](CC(=O)O)NC(=O)[C@H](CC(=O)O)NC1=O)NC(=O)[C@H](CC(C)(C)C)NC(=O)[C@H](CC(=O)O)NC2=O` (stereo partly drawn) [I-686, Ac-PL3-Asp-Npg-B5-Asp-Asp-Ala-Ala-Phe-Asn-PyrS2-3Thi-BztA-Gln-NH2], for which, in data set [1] (setting [4]), the IC50 is 5.6 µM. In the data set “CHI Log D procedure”, the “CHI Log D” value was 1.997 and the logD amounted to 2.0.

For the molecule `CC(=O)N1CCC[C@]12CC=CCCCC1(CCCC=CCCCOC(=O)N3CC[C@@](C(=O)N[C@@H](Cc4ccsc4)C(=O)N[C@@H](Cc4csc5ccccc45)C(=O)N[C@@H](CCC(N)=O)C(N)=O)(C3)NC(=O)[C@H](Cc3ccccc3)NC(=O)[C@H](Cc3ccccc3)NC(=O)[C@H](C)NC(=O)[C@H](C)NC(=O)[C@H](Cc3cccc(C(=O)O)c3)NC(=O)[C@H](CC(=O)O)NC1=O)NC(=O)[C@H](CC(C)(C)C)NC(=O)[C@H](CC(=O)O)NC2=O` (stereo partly drawn) [I-852, Ac-PL3-Asp-Npg-B5-Asp-3COOHF-Ala-Ala-Phe-Phe-PyrS2-3Thi-BztA-Gln-NH2], the IC50 stood at 1.4 µM in data set [1] (setting [6]), 2.8 µM in data set [2] (setting [8]) and 0.007 µM in data set [3] (read-out: beta-Catenin FP IC50). This molecule showed a chromatographic logD in the data set “CHI Log D procedure” of 2.4.

In the case of `CC(=O)N1CCC[C@]12CC=CCCCC1(CCCC=CCCCOC(=O)N3CC[C@@](C(=O)N[C@@H](Cc4ccccc4Br)C(=O)N[C@@H](Cc4csc5ccccc45)C(=O)N[C@@H](CCC(N)=O)C(N)=O)(C3)NC(=O)[C@H](CC(N)=O)NC(=O)[C@H](Cc3ccccc3)NC(=O)[C@H](C)NC(=O)[C@H](C)NC(=O)[C@H](CN(CC(=O)O)CC(F)(F)F)NC(=O)[C@H](CC(=O)O)NC1=O)NC(=O)[C@H](CC(C)(C)C)NC(=O)[C@H](CC(=O)O)NC2=O` (stereo partly drawn) [I-924, Ac-PL3-Asp-Npg-B5-Asp-TfeGA-Ala-Ala-Phe-Asn-PyrS2-2BrF-BztA-Gln-NH2], the values for the IC50 in data set [1] (setting [9]), in data set [2] (setting [8]) and in data set [3] (read-out: beta-Catenin FP IC50) were 4.5 µM, 3.3 µM and 0.007 µM, respectively. In the data set “CHI Log D procedure”, this molecule yielded a chromatographic logD of 2.28.

Take `CC(=O)N1CCC[C@]12CC=CCCCC1(CCCC=CCCCOC(=O)N3CC[C@@](C(=O)N[C@@H](Cc4ccccc4C(F)(F)F)C(=O)N[C@@H](Cc4csc5ccccc45)C(=O)N[C@@H](CCC(N)=O)C(N)=O)(C3)NC(=O)[C@H](CC(N)=O)NC(=O)[C@H](Cc3ccccc3)NC(=O)[C@H](C)NC(=O)[C@H](C)NC(=O)[C@H](CN(CC(=O)O)CC(F)(F)F)NC(=O)[C@H](CC(=O)O)NC1=O)NC(=O)[C@H](CC(C)(C)C)NC(=O)[C@H](CC(=O)O)NC2=O` (stereo partly drawn) [I-927, Ac-PL3-Asp-Npg-B5-Asp-TfeGA-Ala-Ala-Phe-Asn-PyrS2-2F3MeF-BztA-Gln-NH2]: the IC50 was found to be 4.2 µM in data set [1] (setting [9]); 8.2 µM in data set [2] (setting [8]); 8.2 µM in data set [2] (read-out: NanoBRET Abs IC50); 0.011 µM in data set [3] (setting [10]); 0.011 µM in data set [3] (read-out: beta-Catenin FP IC50). Also, the “DLD1 TCF c2 BrightGlo % Inhibition” value in data set [1] (setting [5]) was 77.1% and 77.4% and 80.3%; in data set [1] (0.625 µM) it was 3.5% and 8.0% and 14.3%; in data set [1] (1.25 µM), 8.7% and 15.1% and 18.6%; in data set [1] (2.5 µM), 23.9% and 33.7% and 42.0%; in data set [1] (10 µM) it was 68.0% and 70.2% and 72.9%; in data set [1] (setting [7]), 53.1% and 55.2% and 60.1%. The “CHI Log D” value in “CHI Log D procedure” amounted to 2.313.

Consider `CC(=O)N1CCC[C@]12CC=CCCCC1(CCCC=CCCCOC(=O)N3CC[C@@](C(=O)N[C@@H](CC(=O)O)C(=O)N[C@@H](Cc4csc5ccccc45)C(=O)N[C@@H](CCC(N)=O)C(N)=O)(C3)NC(=O)[C@H](CC(N)=O)NC(=O)[C@H](Cc3ccccc3)NC(=O)[C@H](C)NC(=O)[C@H](C)NC(=O)[C@H](CN(CC(=O)O)CC(F)(F)F)NC(=O)[C@H](Cc3ccsc3)NC1=O)NC(=O)[C@H](CC(C)(C)C)NC(=O)[C@H](CC(=O)O)NC2=O` (stereo partly drawn) [I-1001, Ac-PL3-Asp-Npg-B5-3Thi-TfeGA-Ala-Ala-Phe-Asn-PyrS2-Asp-BztA-Gln-NH2], for which the “TCF Reporter Assay Abs IC50 (uM)” value in data set [1] (setting [11]) and in data set [1] (Peptide only) was “inactive” each time. The IC50 was > 20 µM in data set [1] (setting [9]), > 20 µM in data set [2] (setting [8]), 5.53 µM in data set [3] (setting [10]) and 7.22 µM in data set [3] (read-out: beta-Catenin FP IC50). In addition, the “DLD1 TCF c2 BrightGlo % Inhibition” value in data set [1] (setting [5]) was −1.2% and 7.5% and 3.5%; in data set [1] (0.625 µM), −1.5% and 9.3% and 4.5%; in data set [1] (1.25 µM), −7.0% and −2.8% and 6.1%; in data set [1] (2.5 µM) it was −8.0% and −7.6% and −5.0%; in data set [1] (10 µM), −3.6% and −4.8% and −7.4%; in data set [1] (setting [7]) it was −6.7% (2×) and −0.7%. The “Nano-BRET Abs IC50 (uM)” value in data set [2] (setting [11]) and in data set [2] (Peptide only) was “inactive” throughout. The molecule further gave a chromatographic logD in the data set “CHI Log D procedure” of 1.89.

For the molecule `CC(=O)N1CCC[C@]12CC=CCCCC1(CCCC=CCCCOC(=O)N3CC[C@@](C(=O)N[C@@H](Cc4ccccc4Cl)C(=O)N[C@@H](Cc4csc5ccccc45)C(=O)N[C@@H](CCC(N)=O)C(N)=O)(C3)NC(=O)[C@H](CC(N)=O)NC(=O)[C@H](Cc3ccccc3)NC(=O)[C@H](CC(C)C)NC(=O)[C@H](C)NC(=O)[C@H](CN(CC(=O)O)CC(F)(F)F)NC(=O)[C@H](CC(=O)O)NC1=O)NC(=O)[C@H](CC(C)(C)C)NC(=O)[C@H](CC(=O)O)NC2=O` (stereo partly drawn) [I-1002, Ac-PL3-Asp-Npg-B5-Asp-TfeGA-Ala-Leu-Phe-Asn-PyrS2-2C1F-BztA-Gln-NH2], the IC50 in data set [1] (setting [9]) was > 20 µM; in data set [2] (setting [8]), 29.8 µM; in data set [3] (read-out: beta-Catenin FP IC50) it was 0.009 µM. Further, the chromatographic logD in “CHI Log D procedure” is 2.6.
